The values below come from article PMC3914206.

The target in assay [1] is T1, panel of 442 kinases (Homo sapiens, UniProt Q16620).
T1 construct: purchased KINOMEscan
It counts as binding. Conditions: kinase TRKB; compound concentration 10 µM. The source says: (§1) We assessed the selectivity of members of this scaffold using the KINOMEscan methodology across a near comprehensive panel of 442 kinases [[18,27]].

The target of assay [2] is T2, panel of 442 kinases (Homo sapiens, UniProt Q15139).
T2 construct: purchased KINOMEscan
T2 sequence (Q15139 1-912): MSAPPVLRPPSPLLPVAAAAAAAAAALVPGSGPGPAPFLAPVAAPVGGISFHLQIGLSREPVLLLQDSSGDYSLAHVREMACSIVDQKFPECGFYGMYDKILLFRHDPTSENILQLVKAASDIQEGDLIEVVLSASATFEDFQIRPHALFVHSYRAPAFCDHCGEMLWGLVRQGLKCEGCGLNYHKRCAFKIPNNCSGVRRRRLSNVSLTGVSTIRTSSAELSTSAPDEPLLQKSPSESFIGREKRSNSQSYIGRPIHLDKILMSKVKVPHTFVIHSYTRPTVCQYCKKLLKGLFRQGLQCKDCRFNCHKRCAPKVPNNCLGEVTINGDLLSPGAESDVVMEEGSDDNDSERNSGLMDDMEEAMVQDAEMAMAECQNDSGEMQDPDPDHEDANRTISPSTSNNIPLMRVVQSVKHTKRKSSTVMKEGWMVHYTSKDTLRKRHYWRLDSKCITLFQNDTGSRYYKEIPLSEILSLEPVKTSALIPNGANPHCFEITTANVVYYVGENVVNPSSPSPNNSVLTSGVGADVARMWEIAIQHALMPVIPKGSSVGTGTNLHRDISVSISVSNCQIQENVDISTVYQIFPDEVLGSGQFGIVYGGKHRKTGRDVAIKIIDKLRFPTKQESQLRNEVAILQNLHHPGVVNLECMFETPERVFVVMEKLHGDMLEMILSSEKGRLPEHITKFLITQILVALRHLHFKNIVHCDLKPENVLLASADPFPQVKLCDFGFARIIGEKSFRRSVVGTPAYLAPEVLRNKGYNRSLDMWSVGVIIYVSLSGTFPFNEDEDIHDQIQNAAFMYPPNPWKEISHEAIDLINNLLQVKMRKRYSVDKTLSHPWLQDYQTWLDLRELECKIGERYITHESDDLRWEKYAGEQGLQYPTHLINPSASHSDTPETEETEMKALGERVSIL
It counts as binding. Conditions: Compound Concentration 10 µM.
Description: as §1

Structures are written as SMILES.

T1 sequence (Q16620 32-822): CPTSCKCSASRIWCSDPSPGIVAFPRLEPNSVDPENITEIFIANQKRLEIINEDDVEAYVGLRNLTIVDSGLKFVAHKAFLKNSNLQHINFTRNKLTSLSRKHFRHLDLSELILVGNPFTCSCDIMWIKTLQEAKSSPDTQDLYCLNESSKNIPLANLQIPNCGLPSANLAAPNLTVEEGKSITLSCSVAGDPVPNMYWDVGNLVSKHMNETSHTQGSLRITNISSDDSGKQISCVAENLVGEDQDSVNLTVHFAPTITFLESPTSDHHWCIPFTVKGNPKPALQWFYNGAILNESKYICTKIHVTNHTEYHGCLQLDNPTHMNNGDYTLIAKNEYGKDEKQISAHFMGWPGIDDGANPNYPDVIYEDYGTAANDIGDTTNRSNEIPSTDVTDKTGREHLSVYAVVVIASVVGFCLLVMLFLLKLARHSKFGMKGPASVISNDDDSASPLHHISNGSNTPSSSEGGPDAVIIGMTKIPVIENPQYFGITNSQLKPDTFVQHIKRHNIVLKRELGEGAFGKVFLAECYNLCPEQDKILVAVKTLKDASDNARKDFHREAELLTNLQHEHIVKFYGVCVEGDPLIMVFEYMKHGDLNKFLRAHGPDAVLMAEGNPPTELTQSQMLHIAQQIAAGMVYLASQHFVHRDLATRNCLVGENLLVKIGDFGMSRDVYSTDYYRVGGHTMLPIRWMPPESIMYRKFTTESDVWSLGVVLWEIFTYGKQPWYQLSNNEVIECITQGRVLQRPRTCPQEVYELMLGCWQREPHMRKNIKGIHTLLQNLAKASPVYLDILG

As for `COc1cc(C(=O)N2CCC(N3CCN(C)CC3)CC2)ccc1Nc1ncc2c(n1)N(C)c1ccccc1C(=O)N2C` [15 (LRRK2-IN-1)], the “% Ctrl, TRKB” value on panel of 442 kinases [1] is recorded as 100 % Ctrl. Besides, the “KINOMEscan: PRKD1” value on panel of 442 kinases [2] turned out to be 28. Regarding `COc1cc(C(=O)N2CCC(N3CCN(C)CC3)CC2)ccc1Nc1ncc2c(n1)N1CCc3cccc(c31)C(=O)N2C` [Compound 24], the “KINOMEscan: PRKD1” value at panel of 442 kinases [2] was 21. In the case of `COc1cc(C(=O)N2CCC(N3CCN(C)CC3)CC2)ccc1Nc1ncc2c(n1)N(C1CCCC1)c1ccccc1C(=O)N2C` [Compound 25, 11-cyclopentyl-2-((2-methoxy-4-(4-(4-methylpiperazin-1-yl)piperidine-1-carbonyl)phenyl)amino)-5-methyl-5H-benzo[e]pyrimido[5,4-b][1,4]diazepin-6(11H)-one], at panel of 442 kinases [1], the “% Ctrl, TRKB” value stood at 83 % Ctrl. Also, the “KINOMEscan: PRKD1” value at panel of 442 kinases [2] is 100.

`CCOc1cc(C(=O)N2CCC(N3CCN(C)CC3)CC2)ccc1Nc1ncc2c(n1)N(C1CCCC1)c1ccccc1C(=O)N2C` [Compound 26]: the “% Ctrl, TRKB” value on panel of 442 kinases [1] was found to be 100 % Ctrl. Besides, the “KINOMEscan: PRKD1” value on panel of 442 kinases [2] is 100.
